System: Hepal-6 hepatoma cells
Assay: Tumor growth inhibition rate in mouse model (Hepal-6 hepatoma cells transplanted into C57BL/6 mice)
Format: in vivo, mice (C57BL/6)
Procedure: (E)-N1-(3-(dimethylamino)propyl)-N8-hydroxy-2-((naphthalen-1-yloxy)methyl)-2-octenediamide phosphate (CG-745, CAS No. 2173017-02-0) was used as the alkylcarbamoyl naphthalenyloxy octenoyl hydroxyamide compound, and BP0146 (BioXcell, West Lebanon, N.H., USA) was used as the anti-PD-1 antibody.
1×10^6 Hepal-6 hepatoma cells were injected into the left flank of 6-week-old C57BL6 mice. After 5 days, they were separated into 4 groups for administration of the vehicle, CG-745 alone, the anti-PD-1 antibody alone, or a combination of CG-745 and the anti-PD-1 antibody. The tumor volume was defined as (long axis)×(short axis)^2×0.5. […] Vehicle, CG-745, and the anti-PD-1 antibody were administered intraperitoneally (I.P). CG-745 was administered at a dose of 20 mg/kg for 5 consecutive days followed by 2 days of rest (1 treatment cycle) and the treatment cycle was repeated 3 times. The anti-PD-1 antibody was administered once at a dose of 5 mg/kg together with CG-745 on the fifth day of the first treatment cycle of CG-745.
The average inhibition rate of tumor growth for 9 mice is shown in FIG. 1, and the results for each of 9 mice are shown in FIG. 2.

Structure (SMILES): CN(C)CCCNC(=O)/C(=C/CCCCC(=O)NO)COc1cccc2ccccc12.O=P(O)(O)O [Comparative Example 1, (E)-N1-(3-(dimethylamino)propyl)-N8-hydroxy-2-((naphthalen-1-yloxy)methyl)-2-octenediamide phosphate]
- tumor growth inhibition rate (Day 32, average of 9 mice, CG-745 20 mg/kg I.P. 5 days on/2 days off x 3 cycles, anti-PD-1 antibody 5 mg/kg I.P. once): 73.8%
- number of mice in which the tumor disappeared (of 9 mice per group, same dosing as the tumor growth inhibition rate): 4 mice
